Measured values as given in ChEMBL document CHEMBL3991943, “Pharmaceutical formulations comprising salts of a protein kinase inhibitor and methods of using same” (2013).

Assays:
[1] = system: OVCAR-3; assay: Induction of DNA damage in human OVCAR3 cells assessed as increase in gamma-H2AX levels at 10 uM in presence of topotecan; format: functional
[2] = system: A549; assay: Suppression of carboplatin induced Rad51 expression in human A549 cells at 3.82 uM after 24 hrs by probing blot analysis; format: functional; details: A549, 24 h
[3] = system: Canis familiaris; assay: Chronic toxicity in dog assessed as electrocardiogram changes up to 300 mg/kg/day, po administered for 28 days; format: organism-based, Canis lupus familiaris; details: in vivo, 672 h
[4] = system: Rattus norvegicus; assay: Chronic toxicity in po dosed male rat assessed as severely toxic dose administered daily for 28 days; format: organism-based; details: in vivo, 672 h
[5] = system: Rattus norvegicus; assay: Chronic toxicity in male rat assessed as decrease in food consumption at 200 mg/kg/day, po administered for 28 days; format: organism-based; details: in vivo, 672 h
[6] = Tmax in rat at 25 mg/kg administered via oral gavage; format: ADME, organism-based; details: in vivo
[7] = system: Mus musculus; assay: Toxicity in nude mouse xenografted with human OVCAR3 cells assessed as mortality at 100 to 200 mg/kg, po qd measured on day 5,6,7,20,27 during compound dosing in presence of cisplatin dosed every 7 days for 28 days; format: organism-based; details: in vivo
[8] = system: Rattus norvegicus; assay: Chronic toxicity in female rat assessed as hematological changes at 60 to 100 mg/kg/day, po administered for 28 days; format: organism-based; details: in vivo, 672 h
[9] = system: Rattus norvegicus; assay: Chronic toxicity in male rat assessed as soft feces at 20 to 200 mg/kg/day, po administered for 28 days; format: organism-based; details: in vivo, 672 h
[10] = system: Rattus norvegicus; assay: Chronic toxicity in male rat assessed as ophthalmologic changes at 200 mg/kg/day, po administered for 28 days; format: organism-based; details: in vivo, 672 h
[11] = Chronic toxicity in po dosed female rat assessed as no observable adverse effect level administered daily for 28 days; format: organism-based; details: in vivo
[12] = system: Canis familiaris; assay: Chronic toxicity in dog assessed as histopathological alterations in cardiac tissues up to 300 mg/kg/day, po administered for 28 days; format: organism-based, Canis lupus familiaris; details: in vivo, 672 h
[13] = system: Canis familiaris; assay: Chronic toxicity in dog assessed as urinalysis parameters up to 300 mg/kg/day, po administered for 28 days measured during compound dosing; format: organism-based, Canis lupus familiaris; details: in vivo, 672 h
[14] = system: Rattus norvegicus; assay: Chronic toxicity in female rat assessed as decrease in food consumption at 60 to 100 mg/kg/day, po administered for 28 days; format: organism-based; details: in vivo, 672 h
[15] = system: Rattus norvegicus; assay: Chronic toxicity in female rat assessed as sporadic occurrence of hair loss at 6 to 100 mg/kg/day, po administered for 28 days; format: organism-based; details: in vivo, 672 h
[16] = system: OVCAR-3; assay: Antitumor activity against human OVCAR3 cells xenografted in athymic nude mouse assessed as tumor growth at 100 to 200 mg/kg, po qd administered for 3 days in presence of 5 mg/kg cisplatin dosed every 7 days for 28 days (reference value: 78.04 mm3/day); format: functional
[17] = Cmax in female rat at 5 mg/kg, iv at 5 mins; format: ADME, organism-based; set-up: dose 5 mg/kg, route intravenous; details: in vivo
[18] = system: Rattus norvegicus; assay: Chronic toxicity in female rat assessed as hunched posture at 6 to 100 mg/kg/day, po administered for 28 days; format: organism-based; details: in vivo, 672 h
[19] = system: Rattus norvegicus; assay: Chronic toxicity in male rat assessed as decrease in food consumption at 200 mg/kg/day, po administered for 28 days measured after cessation of dosing; format: organism-based; details: in vivo, 672 h
[20] = system: Rattus norvegicus; assay: Acute toxicity in Sprague-Dawley rat assessed as clinical abnormalities at 100 to 2000 mg/kg administered as single dose via oral gavage measured 1 to 72 hrs post dose; format: organism-based; details: in vivo
[21] = system: Canis familiaris; assay: Chronic toxicity in dog assessed as hematological changes up to 300 mg/kg/day, po administered for 28 days measured during compound dosing; format: organism-based, Canis lupus familiaris; details: in vivo, 672 h
[22] = system: Rattus norvegicus; assay: Chronic toxicity in female rat assessed as effect on organs at 60 to 100 mg/kg/day, po administered for 28 days; format: organism-based; details: in vivo, 672 h
[23] = system: Canis familiaris; assay: Chronic toxicity in dog assessed as mortality up to 300 mg/kg/day, po administered for 28 days; format: organism-based, Canis lupus familiaris; details: in vivo, 672 h
[24] = system: Canis familiaris; assay: Chronic toxicity in female dog assessed as soft feces/diarrhea at 100 to 300 mg/kg/day, po administered for 28 days; format: organism-based, Canis lupus familiaris; details: in vivo, 672 h
[25] = system: Rattus norvegicus; assay: Chronic toxicity in female rat assessed as sporadic alterations in organ weight at 60 to 100 mg/kg/day, po administered for 28 days; format: organism-based; details: in vivo, 672 h
[26] = system: Canis familiaris; assay: Chronic toxicity in male dog assessed as increase in soft feces/diarrhea at 100 to 300 mg/kg/day, po administered for 28 days; format: organism-based, Canis lupus familiaris; details: in vivo, 672 h
[27] = system: Canis familiaris; assay: Chronic toxicity in male dog assessed as mucoid feces at 30 to 300 mg/kg/day, po administered for 28 days; format: organism-based, Canis lupus familiaris; details: in vivo, 672 h
[28] = system: Rattus norvegicus; assay: Chronic toxicity in female rat assessed as weight gain at 6 to 100 mg/kg/day, po administered for 28 days measured during compound dosing; format: organism-based; details: in vivo, 672 h
[29] = system: Canis familiaris; assay: Chronic toxicity in male dog assessed as discolored feces at 30 to 300 mg/kg/day, po administered for 28 days; format: organism-based, Canis lupus familiaris; details: in vivo, 672 h
[30] = Tmax in male rat at 5 mg/kg, iv; format: ADME, organism-based; details: in vivo
[31] = system: Rattus norvegicus; assay: Chronic toxicity in male rat assessed as decrease in triglyceride levels at 200 mg/kg/day, po administered for 28 days; format: organism-based; details: in vivo, 672 h
[32] = Solubility of the compound in glycerol; format: physicochemical
[33] = system: Rattus norvegicus; assay: Chronic toxicity in male rat assessed as hunched posture at 20 to 200 mg/kg/day, po administered for 28 days; format: organism-based; details: in vivo, 672 h
[34] = system: Rattus norvegicus; assay: Chronic toxicity in male rat assessed as decrease in glucose levels at 200 mg/kg/day, po administered for 28 days; format: organism-based; details: in vivo, 672 h
[35] = system: Canis familiaris; assay: Chronic toxicity in dog assessed as effect on serum troponin 1 levels up to 300 mg/kg/day, po administered for 28 days measured during compound dosing; format: organism-based, Canis lupus familiaris; details: in vivo, 672 h
[36] = system: Canis familiaris; assay: Chronic toxicity in dog assessed as effect on food consumption up to 300 mg/kg/day, po administered for 28 days measured during compound dosing; format: organism-based, Canis lupus familiaris; details: in vivo, 672 h
[37] = system: Canis familiaris; assay: Chronic toxicity in dog assessed as ophthalmic lesions up to 300 mg/kg/day, po administered for 28 days; format: organism-based, Canis lupus familiaris; details: in vivo, 672 h
[38] = system: Rattus norvegicus; assay: Chronic toxicity in male rat assessed as sporadic alterations in organ weight at 200 mg/kg/day, po administered for 28 days; format: organism-based; details: in vivo, 672 h
[39] = system: Rattus norvegicus; assay: Chronic toxicity in male rat assessed as effect on organs at 200 mg/kg/day, po administered for 28 days; format: organism-based; details: in vivo, 672 h
[40] = system: Canis familiaris; assay: Acute toxicity in dog at 30 to 2000 mg/kg, po administered as single dose capsule measured over 24 hrs; format: organism-based, Canis lupus familiaris; details: in vivo
[41] = system: Canis familiaris; assay: Chronic toxicity in female dog assessed as increase in emesis at 300 mg/kg/day, po administered for 28 days; format: organism-based, Canis lupus familiaris; details: in vivo, 672 h
[42] = system: A549; assay: Suppression of carboplatin induced Rad51 expression in human A549 cells at 0.71 uM after 24 hrs by probing blot analysis; format: functional; details: A549, 24 h
[43] = system: Canis familiaris; assay: Acute toxicity in dog assessed as mortality at 30 to 2000 mg/kg, po administered as single dose capsule measured over 24 hrs; format: organism-based, Canis lupus familiaris; details: in vivo

Cl.S=C(NCc1ccc2c(c1)OCO2)N1CCN(c2ncnc3c2oc2ccccc23)CC1 [AMUVATINIB HYDROCHLORIDE]
Toxic: Activity [5] | Activity [7] | Activity [9] | Activity [14] | Activity [15] | Activity [18] | Activity [24] | Activity [25] | Activity [26] | Activity [27] | Activity [28] | Activity [29] | Activity [31] | Activity [33] | Activity [34] | Activity [38] | Activity [41]
42%: inhibition at 3.82 µM [2]
5 min: Tmax [30]
200 mg/kg/day: Activity [4]
30 to 720 min: Tmax [6]
Non-Toxic: Activity [3] | Activity [8] | Activity [10] | Activity [12] | Activity [13] | Activity [19] | Activity [20] | Activity [21] | Activity [22] | Activity [23] | Activity [35] | Activity [36] | Activity [37] | Activity [39] | Activity [40] | Activity [43]
113%: Activity [1]
4000 µg/mL: solubility [32]
371 ng/mL: Cmax [17]
26%: inhibition at 0.71 µM [42]
10.22 mm3/day: Activity [16]
20 mg/kg/day: NOAEL at 672 h [11]
